Source: patent US10787448B2, “Indolizino [3,2-C] quinoline-based fluorescent probe” (SEOUL NATIONAL UNIVERSITY R & DB FOUNDATION, priority 2015, dated 2020)
“And” between values parts separate entries of the source, which are not always exact repeats. Equal values may be shown once.

Columns and labels:
[1] = tested on: HeLa cells; assay: Cell permeability: fluorescence imaging and live cell confocal imaging; type: cell-based; settings: for intracellular organelles in which fluorescence is detected: HeLa cells; for co-localization with LysoTracker: live-cell confocal imaging, IQ 56 green, IQ 57 blue wavelength; for detection with yellow and red wavelength filters: live HeLa cells, ex 514 nm, em 519 nm and ex 561 nm, em 566 nm
Procedure: HeLa cells were seeded in a 96-well plate and incubated for 24 hours. The cells were treated with the indolizino[3,2-c]quinoline compounds, and incubated at 37° C. under a 5% CO2 condition for 30 minutes. After removal of the medium, the cells were washed with 1×DPBS. The washed cells were fixed with 4% formaldehyde at room temperature for 10 minutes, and washed with 1×DPBS. A cell image was screened using an Operetta HTS imaging system (PerkinElmer).
After HeLa cells were seeded to account for 70 to 80% of the area of a confocal dish (SPL life science) and overnight cultured, the indolizino[3,2-c]quinoline compounds (10 μM) prepared by mixing fresh DMEM after removal of the existing DMEM medium were dispensed, and the cells were incubated for 30 minutes to 1 hour at 37° C. Afterward, if needed, LysoTracker (50 nM) was mixed with DMEM to remove the existing medium and then dispensed to the cells, and the cells were incubated for 30 minutes at 37° C. After incubation, without washing, the cells were examined by a confocal laser microscope (Leica TCS SP8 SMD, Leica, Mannheim, Germany). However, when co-stained with a LysoTracker, the cells were washed with DPBS twice before the microscopy. […]

[2] = Analysis of optical characteristics (absorption, fluorescence emission, quantum yield) in solvents; type: physicochemical; settings: for Fluorescence Emission Intensity / Peak emission wavelength λmax em(nm) / Relative fluorescence Emission Intensitynorm: H2O at 2 μM; for Peak emission wavelength λmax em(nm): excited at the longest absorption maxima; for Relative fluorescence Emission Intensitynorm: normalized fluorescence intensity; for Fluorescence quantum yield (Φ): Rhodamine 6G as a standard (Φ = 0.86 in water)
Procedure: Fluorescence emission spectra were obtained at 20° C. using a JASCO FP-6500 spectrofluorometer, a 10 mM stock solution prepared by dissolving an indolizino[3,2-c]quinoline compound in DMSO was diluted in a solvent. […] Absorption spectra were recorded at room temperature using a Perkin Elmer Lamda 20 UV/VIS spectrometer. […]
Further, the compounds (excluding Entry #51-57, etc.) of Formula 1 were subjected to spectrum analyses in various solvents, and the results are shown in Tables 6 and 7, and FIGS. 5C and 5D.

[3] = tested on: DNA oligomers (48 bp) tetO sequences; assay: Binding to DNA by fluorescence spectrophotometer; settings: hybridized tetO DNA oligomers added, 1 minute incubation
Procedure: Using a fluorescence spectrophotometer, it was confirmed whether the indolizino[3,2-c]quinoline compound of the present invention binds to DNA. First, DNA oligomers (48 bp) used in the experiment are tetO sequences, and the base sequences thereof are as follows.
The same molarities of oligomers were mixed while being heated at 95° C. for 5 minutes and cooled to room temperature for 2 hours to hybridize, the fluorescence of each of the indolizino[3,2-c]quinoline compounds of the present invention was measured, a corresponding equivalent of DNA oligomer was added to a cuvette, and then incubated while blocking light for 1 minute to measure fluorescence again.

Row | Structure (SMILES) | quantum yield (Φ) ([2]; DW, standard Rhodamine 6G) | quantum yield (Φ) ([2]; EtOH, standard Coumarin 153) | Fluorescence Emission Intensity [2] | Peak emission wavelength λmax em(nm) [2] | Relative fluorescence Emission Intensitynorm [2] | other results
1 | COc1ccc(-c2nc3ccccc3c3cc4ccccn4c23)cc1CN1CCOCC1 [IQ 56, 4-(5-(indolizino[3,2-c]quinolin-6-yl)-2-methoxybenzyl)morpholine] |  |  |  |  |  | intracellular organelles in which fluorescence is detected [1]: intensively distributed in the lysosomal area; co-localization with LysoTracker [1]: co-localized with the commercially available marker LysoTracker
2 | CCOC(=O)c1c2c3ccccc3nc(-c3ccc(OC)c(CN4CCOCC4)c3)c2n2ccccc12 [IQ 57, ethyl 6-(4-methoxy-3-(morpholinomethyl)phenyl)indolizino[3,2-c]quinoline-12-carboxylate] |  |  |  |  |  | intracellular organelles in which fluorescence is detected [1]: intensively distributed in the lysosomal area; co-localization with LysoTracker [1]: co-localized with the commercially available marker LysoTracker
3 | COc1ccc(-c2ccn3c(c2)cc2c4ccccc4nc(-c4ccc(OC)cc4)c23)cc1 [IQ-B26, 6,10-bis(4-methoxyphenyl)indolizino[3,2-c]quinoline] |  |  |  |  |  | detection with yellow and red wavelength filters [1]: detected
4 | COc1ccc(-c2nc3ccccc3c3cc4cc(-c5ccc(/C=C/C=O)cc5)ccn4c23)cc1 [IQ-B31, (E)-3-(4-(6-(4-methoxyphenyl)indolizino[3,2-c]quinolin-10-yl)phenyl)acrylaldehyde] |  |  |  |  |  | detection with yellow and red wavelength filters [1]: detected; λex(nm) ([2]; Table 7): 440 nm
5 | COc1ccc(-c2nc3ccccc3c3cc4cc(-c5ccc(N(C)C)cc5)ccn4c23)cc1 [IQ-B37, 4-(6-(4-methoxyphenyl)indolizino[3,2-c]quinolin-10-yl)-N,N-dimethylaniline] |  |  |  |  |  | detection with yellow and red wavelength filters [1]: detected; λex(nm) ([2]; Table 7): 432 nm
6 | COc1ccc(-c2nc3ccccc3c3cc4c(C)cccn4c23)cc1OC [compound 17] | 0.065 | 0.604 | 31.7 | 524.5 nm | 0.14 | shift of maximum emission wavelength on addition of DNA oligomer [3]: wavelength to longer wavelength; Maximum absorption wavelength λmax abs(nm) [2]: 391 nm
7 | Cc1cccn2c1cc1c3ccccc3nc(-c3ccco3)c12 [compound 18] | 0.008 | 0.421 | 15.0 | 523.5 nm | 0.06 | shift of maximum emission wavelength on addition of DNA oligomer [3]: wavelength to shorter wavelength; Maximum absorption wavelength λmax abs(nm) [2]: 400 nm
8 | COC(=O)c1c2c3ccccc3nc(-c3cc(OC)cc(OC)c3)c2n2ccccc12 [compound 19] | 0.060 | 0.222 | 80.5 | 478 nm | 0.35 | shift of maximum emission wavelength on addition of DNA oligomer [3]: wavelength to shorter wavelength
9 | COc1ccc(-c2nc3ccccc3c3cc4ccc(Br)cn4c23)cc1 [compound 22] | 0.070 | 0.440 | 89.5 | 512 nm | 0.38 | 
10 | Cc1ccc(-c2nc3ccccc3c3cc4ccc(Br)cn4c23)cc1 [compound 23] | 0.065 | 0.106 | 82.4 | 518 nm | 0.35 | 
11 | COc1ccc(-c2nc3ccccc3c3cc4ccc(Br)cn4c23)cc1OC [compound 24] | 0.030 | 0.063 | 75.1 | 513 nm | 0.32 | 
12 | Brc1ccc2cc3c4ccccc4nc(-c4ccco4)c3n2c1 [compound 25] | 0.009 | 0.031 | 13.4 | 505.5 nm | 0.06 | 
13 | CCOC(=O)c1c2c3ccccc3nc(-c3ccc([N+](=O)[O-])cc3)c2n2ccccc12 [compound 26] | 0.000 | 0.000 |  |  | 0.00 | Maximum absorption wavelength λmax abs(nm) [2]: 384 nm
14 | CCOC(=O)c1c2c3ccccc3nc(-c3cccc(Cl)c3)c2n2ccccc12 [compound 27] | 0.073 | 0.318 | 98.9 | 474 nm | 0.42 | 
15 | CCOC(=O)c1c2c3ccccc3nc(-c3cccc(F)c3)c2n2ccccc12 [compound 28] |  |  | 211.7 | 476 nm | 0.91 | Absorption coefficient (cm^−1M^−1) [2]: 10780 cm^−1M^−1; Absorption wavelength λex(nm) [2]: 369 nm; Emission wavelength λem(nm) [2]: 476 nm; λem (nm) ([2]; DMF): 470 nm; λem (nm) ([2]; DMSO): 472.5 nm; λem (nm) ([2]; EtOH): 449.5 nm; λem (nm) ([2]; EtOH:CHCl3 = 1:5): 450 nm; λem (nm) ([2]; H2O): 476 nm; λem (nm) ([2]; MC): 451.5 nm; Fluorescence quantum yield (Φ) [2]: 0.061
16 | CCOC(=O)c1c2c3ccccc3nc(-c3cccc(OC)c3)c2n2ccccc12 [compound 29] | 0.120 | 0.365 | 186.2 | 482 nm | 0.80 | 
17 | CCOC(=O)c1c2c3ccccc3nc(-c3ccc(OC)c(OC)c3)c2n2ccccc12 [compound 30] |  |  | 210.7 | 480.5 nm | 0.90 | Absorption coefficient (cm^−1M^−1) [2]: 10580 cm^−1M^−1; Absorption wavelength λex(nm) [2]: 369 nm; Emission wavelength λem(nm) [2]: 481 nm; λem (nm) ([2]; DMF): 450 nm; λem (nm) ([2]; DMSO): 452.5 nm; λem (nm) ([2]; EtOH): 444 nm; λem (nm) ([2]; EtOH:CHCl3 = 1:5): 447.5 nm; λem (nm) ([2]; H2O): 478.5 nm; λem (nm) ([2]; MC): 448 nm; Fluorescence quantum yield (Φ) [2]: 0.084
18 | Cc1cccn2c1cc1c3ccccc3nc(-c3cccc4ccccc34)c12 [compound 33] | 0.082 | 0.277 |  |  |  | 
19 | Cc1ccc2cc3c4ccccc4nc(-c4cccc5ccccc45)c3n2c1 [compound 35] | 0.073 | 0.365 |  |  |  | 
20 | c1csc(-c2nc3ccccc3c3cc4ccccn4c23)c1 [compound 42] |  |  |  |  |  | shift of maximum emission wavelength on addition of DNA oligomer [3]: wavelength to shorter wavelength
21 | CCOC(=O)c1c2c3ccccc3nc(-c3ccc(OC)cc3)c2n2ccccc12 [compound 51] |  |  |  |  |  | λex(nm) ([2]; Table 6): 403 nm
22 | Cc1cccn2c1cc1c3ccccc3nc(-c3cccs3)c12 [compound 52] |  |  |  |  |  | λex(nm) ([2]; Table 6): 399 nm
23 | Cc1cccn2c1cc1c3ccccc3nc(-c3ccc(Cl)o3)c12 [compound 53] |  |  |  |  |  | λex(nm) ([2]; Table 6): 422 nm
24 | C#Cc1c2c3ccccc3nc(-c3ccc(OC)cc3)c2n2ccccc12 [compound 55] |  |  |  |  |  | λex(nm) ([2]; Table 6): 413 nm
25 | COc1ccc(-c2nc3ccccc3c3cc4ccccn4c23)cc1CN1CCOCC1 [compound 56] |  |  |  |  |  | λex(nm) ([2]; Table 6): 450 nm and 422 nm
26 | CCOC(=O)c1c2c3ccccc3nc(-c3ccc(OC)c(CN4CCOCC4)c3)c2n2ccccc12 [compound 57] |  |  |  |  |  | λex(nm) ([2]; Table 6): 401 nm

Further lines, with some results ahead:

Row | quantum yield (Φ) ([2]; DW, standard Rhodamine 6G) | quantum yield (Φ) ([2]; EtOH, standard Coumarin 153) | Fluorescence Emission Intensity [2] | Peak emission wavelength λmax em(nm) [2] | Relative fluorescence Emission Intensitynorm [2] | Structure (SMILES) | other results
27 | 0.006 | 0.386 |  |  |  | CN(C)c1ccc(-c2nc3ccccc3c3cc4ccccn4c23)cc1 [compound 36] | shift of maximum emission wavelength on addition of DNA oligomer [3]: wavelength to longer wavelength
28 | 0.026 | 0.492 |  |  |  | COc1ccc(-c2nc3ccccc3c3c(C#N)c4ccccn4c23)cc1 [compound 39] | 
29 | 0.014 | 0.275 |  |  |  | COC(=O)c1c2c3ccccc3nc(-c3ccccn3)c2n2ccccc12 [compound 43] | 
30 | 0.050 | 0.597 |  |  |  | COc1ccc(-c2nc3ccccc3c3c(-c4ccc(C(F)(F)F)cc4)c4ccccn4c23)cc1 [compound 47] | 
31 | 0.105 | 0.050 |  |  |  | COc1ccc(-c2nc3ccccc3c3c(-c4ccc(C(C)=O)cc4)c4ccccn4c23)cc1 [compound 48] | 
32 | 0.085 | 0.195 |  |  |  | COc1ccc(-c2nc3ccccc3c3c(Br)c4ccccn4c23)cc1 [compound 49] | 
33 | 0.014 | 0.037 |  |  |  | COc1ccc(-c2nc3ccccc3c3c(I)c4ccccn4c23)cc1 [compound 50] | 
